Test results: patent publication US4031198A, “Technetium-labeled complexes, production and use thereof” (priority 1974, dated 1977)

Key:
[1] = Partition coefficient of Tc complexes, water/n-octyl alcohol, by radioactivity; assay type: physicochemical; conditions: water/n-octanol
Description: These partition coefficient studies involve plotting pH vs. The natural logarithm of the ratio of the activity in water to the activity in normal octyl alcohol, hereinafter referred to as ln(aw /ao). In the pH range of 5 to 8, the complex should not be so lipophilic as to have an ln(aw /ao) of less than -2, particularly at the higher pH levels. On the other hand, the hydrophilicity must also be kept within limits, as the following table illustrates:
Acid, salt, hydroxyl, amino or other polar groups present on the complexing agent molecule can provide a water solubilizing or hydrophilic effect which is reflected in higher ln aw /ao values, but due regard must be accorded to the variety of fluids, organs and tissues in mammals, each of which can have a distinctively acidic or basic environment, ranging from, for example, the low pH of the stomach to the relatively high pH of the intestines. The blood is on the mildly alkaline side at pH = 7.4. Thus, partition coefficient data on the Tc-complexes of this invention are preferably obtained throughout the pH range of 5 to 8. The use of partition coefficient data in pharmacology is well-established; see Andrejus Korolkvas, Essentials of Molecular Pharmacology, Wiley (interscience), N.Y., N.Y., 1970. […] Natural logarithms of partition coefficients are tabulated in several of the Examples which follow.
Partition coefficients for the Tc-DHT complex of this Example were determined with a water/n-octyl alcohol system over the pH range of 5 to 8 using radioactive measurements to determine the amount of Tc-99m in each phase. The expression aw /ao is the ratio of the activity in water to the activity in n-octyl alcohol. For comparison, partition coefficients over the same pH range were determined for sodium 99m pertechnetate and cysteine (HS-CH2 CH(NH2)COOH).
The aw /ao ratios for the 99mTc-4-mercaptobutanol complex were determined as in Example 1, except that two independently determined ln(aw /ao) vs. pH plots were averaged.
The aw /ao ratios for the Tc 99m complex of this Example were determined as in Example 1. The results (ln data accurate to ± 0.5) were as follows:
A series of Tc-99m complexes were made by reducing NaTcO4 and reacting the reduced Tc-99m species with the following aliphatic mercapto alcohols:
Partition coefficients were determined as in Examples 1, 3, and 5 in Tables II, III, and VI.

[2] = In vivo study of liver or gall-bladder specificity

SMILES	logD ([1]; pH 5)	logD ([1]; pH 6)	logD ([1]; pH 7)	logD ([1]; pH 8)	Ln of partition coefficient, ln(aw /ao) ([1]; pH 5)	Ln of partition coefficient, ln(aw /ao) ([1]; pH 6)	Ln of partition coefficient, ln(aw /ao) ([1]; pH 7)	Ln of partition coefficient, ln(aw /ao) ([1]; pH 8)	liver or gall-bladder specificity [2]
OCCCCCS [5-mercapto pentanol]	-0.2	-0.1	-0.1	0	–	–	–	–	–
CC(C)(O)CCS [4-mercapto-2-methyl-2-butanol]	1	1.1	1.2	1.3	–	–	–	–	–

Further lines, with some results ahead:

logD ([1]; pH 5)	logD ([1]; pH 6)	logD ([1]; pH 7)	logD ([1]; pH 8)	Ln of partition coefficient, ln(aw /ao) ([1]; pH 5)	Ln of partition coefficient, ln(aw /ao) ([1]; pH 6)	Ln of partition coefficient, ln(aw /ao) ([1]; pH 7)	Ln of partition coefficient, ln(aw /ao) ([1]; pH 8)	SMILES	liver or gall-bladder specificity [2]
–	–	–	–	-0.9	-0.8	-0.7	-0.6	OCCS [2-mercapto-ethanol]	–
–	–	–	–	+3.2	+3.3	+3.5	+3.6	[Na+].[O]=[99Tc](=[O])(=[O])[O-] [Na99mTcO4, sodium 99m pertechnetate, reference compound]	insufficient liver or gall-bladder specificity
–	–	–	–	-0.5	-0.4	-0.3	-0.2	OCCCS [3-mercapto propanol]	–
